Assays:
[1] = Bronchodilatory activity in Dunkin-Hartley guinea pig trachea assessed as time taken for electrical filed stimulation-induced constrictive response to recover by 50%; format: functional, Cavia porcellus
[2] = organism: Homo sapiens; test: Selectivity ratio of EC50 for human recombinant beta-1 adrenergic receptor to EC50 for human recombinant beta2 adrenergic receptor
[3] = test system: Canis familiaris; test: Bronchodilatory activity in itr dosed Beagle dog assessed as duration of blockade of acetylcholine-induced bronchoconstriction at ED50 administered as single dose prior to acetylcholine challenge
[4] = organism: Canis familiaris
Description: Bronchodilatory activity in itr dosed Beagle dog assessed as inhibition of acetylcholine-induced bronchoconstriction administered 5 doses of compound at cumulative 1 hr intervals

[5] = test system: Canis familiaris; test: Bronchodilatory activity in itr dosed Beagle dog assessed as duration of blockade of acetylcholine-induced bronchoconstriction at 10 times ED50 administered as single dose prior to acetylcholine challenge
[6] = in vivo; conditions: beagle, dog, inhaled or intranasal
Description: Therapeutic index, ratio of dose inducing cardiovascular side effects to ED50 for inhibition of acetylcholine-induced bronchoconstriction in itr dosed Beagle dog

[7] = target: Beta-2 adrenergic receptor (Homo sapiens, UniProt P07550); test: Agonist activity at human recombinant beta2 adrenergic receptor expressed in CHO cells assessed as elevation in cAMP level after 1 hr by flashplate method; format: functional, cell-based
Beta-2 adrenergic receptor, sequence (P07550 whole entry): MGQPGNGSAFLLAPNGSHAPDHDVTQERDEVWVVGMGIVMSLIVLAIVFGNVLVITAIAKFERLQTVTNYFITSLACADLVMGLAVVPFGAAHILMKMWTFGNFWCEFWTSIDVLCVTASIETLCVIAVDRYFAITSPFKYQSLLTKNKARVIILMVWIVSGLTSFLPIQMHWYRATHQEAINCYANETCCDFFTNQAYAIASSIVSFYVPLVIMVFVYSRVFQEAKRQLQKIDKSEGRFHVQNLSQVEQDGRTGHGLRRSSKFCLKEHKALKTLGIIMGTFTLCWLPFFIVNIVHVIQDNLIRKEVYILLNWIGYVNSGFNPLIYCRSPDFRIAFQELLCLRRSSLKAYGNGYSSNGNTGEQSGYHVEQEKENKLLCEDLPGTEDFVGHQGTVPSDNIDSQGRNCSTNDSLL

[8] = Distribution coefficient, log D of the compound; format: physicochemical; conditions: octanol/water
[9] = Tmax in rat at 100 ug, it; format: ADME, organism-based; conditions: in vivo, inhaled or intranasal
[10] = Cmax in rat at 100 ug, it; format: ADME, organism-based; parameters: dose 100 ug; conditions: in vivo, inhaled or intranasal
[11] = Oral bioavailability in rat; format: ADME, organism-based; conditions: in vivo
[12] = Apparent permeability from basolateral to apical side of human Caco-2 cells; format: ADME, cell-based
[13] = organism: Oryctolagus cuniculus; test: Toxicity in rabbit Adelta-fibre firing model assessed as induction of postinhalation cough at 50 to 1000 ug, it; format: organism-based; conditions: in vivo, inhaled_or_intranasal
[14] = test system: Canis familiaris; test: Cardiotoxicity in itr dosed Beagle dog assessed as induction of trachycardia after 7.5 hrs; format: toxicity, organism-based, Canis lupus familiaris; conditions: in vivo, inhaled_or_intranasal
[15] = Plasma protein binding in iv dosed rat; format: ADME, organism-based; conditions: read-out: PPB (converted)
[16] = test system: Liver microsomes; test: Intrinsic clearance in human liver microsome; format: ADME
[17] = Volume of distribution in iv dosed rat; format: ADME, organism-based; conditions: in vivo
[18] = Half life in iv dosed rat; format: ADME, organism-based; conditions: in vivo
[19] = target: Voltage-gated inwardly rectifying potassium channel KCNH2 (Homo sapiens, UniProt Q12809); test: Inhibition of human ERG by patch clamp technique
Voltage-gated inwardly rectifying potassium channel KCNH2, sequence (Q12809 whole entry): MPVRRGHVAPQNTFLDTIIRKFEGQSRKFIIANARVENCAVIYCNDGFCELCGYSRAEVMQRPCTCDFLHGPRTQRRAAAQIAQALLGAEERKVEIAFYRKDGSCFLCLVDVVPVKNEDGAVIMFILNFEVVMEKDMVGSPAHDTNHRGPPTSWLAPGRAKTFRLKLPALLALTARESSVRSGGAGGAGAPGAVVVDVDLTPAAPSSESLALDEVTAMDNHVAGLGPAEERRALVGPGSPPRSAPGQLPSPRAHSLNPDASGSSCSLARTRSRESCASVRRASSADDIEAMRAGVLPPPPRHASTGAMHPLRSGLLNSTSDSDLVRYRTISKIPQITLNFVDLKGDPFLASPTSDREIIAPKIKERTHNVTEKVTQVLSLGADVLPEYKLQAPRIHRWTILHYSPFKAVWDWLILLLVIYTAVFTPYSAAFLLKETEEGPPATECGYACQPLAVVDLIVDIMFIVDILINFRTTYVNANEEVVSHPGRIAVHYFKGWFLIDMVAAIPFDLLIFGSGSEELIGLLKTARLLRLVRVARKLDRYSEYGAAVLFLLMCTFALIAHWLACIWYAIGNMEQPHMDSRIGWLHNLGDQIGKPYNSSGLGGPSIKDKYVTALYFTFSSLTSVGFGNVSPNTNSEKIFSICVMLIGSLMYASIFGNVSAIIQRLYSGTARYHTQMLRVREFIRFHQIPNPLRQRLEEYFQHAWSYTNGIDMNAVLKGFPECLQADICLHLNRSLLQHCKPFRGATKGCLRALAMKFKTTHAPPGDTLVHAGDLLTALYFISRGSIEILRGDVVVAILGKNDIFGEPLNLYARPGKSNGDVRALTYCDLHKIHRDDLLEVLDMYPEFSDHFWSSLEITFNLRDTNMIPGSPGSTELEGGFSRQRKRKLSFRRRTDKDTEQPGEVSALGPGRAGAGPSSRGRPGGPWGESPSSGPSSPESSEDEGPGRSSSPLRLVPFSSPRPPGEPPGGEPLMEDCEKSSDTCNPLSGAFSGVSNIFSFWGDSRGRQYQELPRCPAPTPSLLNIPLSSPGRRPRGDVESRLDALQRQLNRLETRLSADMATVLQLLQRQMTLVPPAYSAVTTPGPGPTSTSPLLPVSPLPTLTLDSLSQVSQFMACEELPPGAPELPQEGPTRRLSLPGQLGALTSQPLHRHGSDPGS

[20] = Metabolic stability in rat bile assessed as compound remaining; format: ADME, tissue-based
[21] = test system: Liver; test: Unbound intrinsic clearance in rat liver; format: ADME, Microsome; conditions: microsomes
[22] = test system: Liver microsomes; test: Intrinsic clearance in human liver microsome in presence of CYP3A4 inhibitor ketoconazole; format: ADME
[23] = test system: Liver microsomes; test: Metabolic stability in human liver microsome; format: ADME
[24] = Apparent permeability from apical to basolateral side of human Caco-2 cells; format: ADME, cell-based
[25] = Total clearance in iv dosed rat; format: ADME, organism-based; conditions: in vivo
[26] = test system: Liver; test: Intrinsic clearance in rat liver; format: ADME, Microsome; conditions: microsomes
[27] = test system: Canis familiaris; test: Cardiotoxicity in itr dosed Beagle dog assessed as increase in heart rate after 7.5 hrs; format: toxicity, organism-based, Canis lupus familiaris; conditions: in vivo, inhaled_or_intranasal
[28] = Dissociation constant, pKa of the compound; format: physicochemical

## C[C@H](Cc1cccc(CC(=O)NCc2ccc(Cl)c(Cl)c2)c1)NC[C@H](O)c1ccc(O)c(CO)c1
[1]
  Time: 9 h
[2]
  Ratio EC50: 5300

## COc1cccc(OC)c1CNC(=O)c1cc2cc(C[C@@H](C)NC[C@H](O)c3ccc(O)c(CO)c3)ccc2[nH]1
[3]
  Time: >8 h
[4]
  ED50: 1 µg
[5]
  Time: >8 h
[6]
  selectivity ratio: 10

## C[C@H](Cc1cccc(CC(=O)NC23CC4CC(CC(C4)C2)C3)c1)NC[C@H](O)c1ccc(O)c(CO)c1
[7]
  EC50: 0.064 nM
[1]
  Time: 6.35 h
[2]
  Ratio EC50: 1300

## COc1ccccc1CNC(=O)Cc1cccc(C[C@@H](C)NC[C@H](O)c2ccc(O)c(NS(C)(=O)=O)c2)c1
[7]
  EC50: 0.04 nM
[1]
  Time: 4.22 h
[2]
  Ratio EC50: 5600
[8]
  logD: 1.2

## CC(C)(Cc1cccc(CC(=O)NCc2cccc(-c3ccc(O)cc3)c2)c1)NC[C@H](O)c1ccc(O)c(NS(C)(=O)=O)c1 [PF-00610355]
[3]
  Time: >8 h
[4]
  ED50: 0.1 µg
[9]
  Tmax: 0.5 h
[10]
  Cmax: 1.3 nM
[11]
  bioavailability: < 5%
[12]
  Papp B→A: 13 ×10⁻⁶ cm/s
[13]
  Activity: Non-toxic
[14]
  Activity: Non-toxic
[15]
  fraction unbound: 0.05
[1]
  Time: 6.23 h
[2]
  Ratio EC50: 220
[16]
  CL: 0.054 mL/min/kg
[5]
  Time: >8 h
[8]
  logD: 1.9
[17]
  Vd: 31 L/kg
[18]
  half-life: 3.5 h
[19]
  IC50: > 10000 nM
[20]
  Stability: 6%
[21]
  CL free: > 10000 mL/min/kg
[22]
  CL: < 0.01 mL/min/kg
[23]
  Stability: 80%
[24]
  Papp A→B: < 1 ×10⁻⁶ cm/s
[25]
  clearance: 103 mL/min/kg
[6]
  selectivity ratio: ≥ 10
[26]
  CL: 0.033 mL/min/kg

## CCN(Cc1ccc(O)cc1Cl)C(=O)Cc1cccc(CC(C)(C)NC[C@H](O)c2ccc(O)c(NS(C)(=O)=O)c2)c1
[7]
  EC50: 0.37 nM
[1]
  Time: 8.49 h
[2]
  Ratio EC50: 210
[8]
  logD: 1.6

## C[C@H](Cc1cccc(CC(=O)NCCCc2ccccc2)c1)NC[C@H](O)c1ccc(O)c(NS(C)(=O)=O)c1
[7]
  EC50: 0.042 nM
[1]
  Time: 5.85 h
[2]
  Ratio EC50: 3400
[8]
  logD: 1.7

## OCc1cc(C(O)CNCCCCCCOCCCCc2ccccc2)ccc1O (stereo not given) [SALMETEROL]
[3]
  Time: 4 h
[4]
  ED50: 1 µg
[1]
  Time: 6.97 h
[5]
  Time: <7 h
[27]
  Activity: Toxic

## CCOc1ccccc1CNC(=O)Cc1cccc(C[C@@H](C)NC[C@H](O)c2ccc(O)c(NS(C)(=O)=O)c2)c1
[7]
  EC50: 0.048 nM
[1]
  Time: 6.2 h
[2]
  Ratio EC50: 3300
[8]
  logD: 1.6

## CC(C)(Cc1cccc(CC(=O)NCc2ccc(O)cc2Cl)c1)NC[C@H](O)c1ccc(O)c(NS(C)(=O)=O)c1
[7]
  EC50: 0.02 nM
[1]
  Time: 6.8 h
[2]
  Ratio EC50: 7300
[8]
  logD: 1.2

## CC(C)(Cc1cccc(CC(=O)NCc2cc(Cl)c(O)c(Cl)c2)c1)NC[C@H](O)c1ccc(O)c(NS(C)(=O)=O)c1
[7]
  EC50: 0.091 nM
[1]
  Time: 3.66 h
[2]
  Ratio EC50: 1600
[8]
  logD: 0.8
[28]
  pKa: 6.69

## CC(C)(Cc1cccc(CC(=O)NCc2ccc(Cl)c(Cl)c2)c1)NC[C@H](O)c1ccc(O)c(NS(C)(=O)=O)c1
[7]
  EC50: 0.066 nM
[1]
  Time: 8.34 h
[2]
  Ratio EC50: 1700
[8]
  logD: 2.4

## CC(C)(Cc1cccc(CC(=O)NCc2cc(Cl)cc(Cl)c2O)c1)NC[C@H](O)c1ccc(O)c(NS(C)(=O)=O)c1
[7]
  EC50: 0.13 nM
[1]
  Time: 8.02 h
[2]
  Ratio EC50: 560
[8]
  logD: 2

## Cc1ccc(CNC(=O)Cc2cccc(C[C@@H](C)NC[C@H](O)c3ccc(O)c(NS(C)(=O)=O)c3)c2)cc1C
[7]
  EC50: 0.056 nM
[1]
  Time: 6.74 h
[2]
  Ratio EC50: 3700
[8]
  logD: 2

## CC(C)(Cc1cccc(CC(=O)NCc2ccc(-c3ccc(O)cc3)cc2)c1)NC[C@H](O)c1ccc(O)c(NS(C)(=O)=O)c1
[1]
  Time: 6.57 h
[2]
  Ratio EC50: 1300

## Cc1cc(O)cc(C)c1CNC(=O)Cc1cccc(CC(C)(C)NC[C@H](O)c2ccc(O)c(NS(C)(=O)=O)c2)c1
[7]
  EC50: 0.045 nM
[1]
  Time: 4.59 h
[2]
  Ratio EC50: 3700
[8]
  logD: 1.1
[28]
  pKa: 9.93

## C[C@H](Cc1cccc(CC(=O)NCCc2ccccc2)c1)NC[C@H](O)c1ccc(O)c(NS(C)(=O)=O)c1
[7]
  EC50: 0.04 nM
[2]
  Ratio EC50: 1800

## CC(C)(Cc1cccc(CC(=O)NCc2ccc3cc(O)ccc3c2)c1)NC[C@H](O)c1ccc(O)c(NS(C)(=O)=O)c1
[7]
  EC50: 0.21 nM
[1]
  Time: 6.17 h
[2]
  Ratio EC50: 730
[8]
  logD: 1.3

## C[C@H](Cc1cccc(CC(=O)NCC2CCCCC2)c1)NC[C@H](O)c1ccc(O)c(NS(C)(=O)=O)c1
[7]
  EC50: 0.032 nM
[1]
  Time: 5.79 h
[2]
  Ratio EC50: 3100

## CC(C)(Cc1cccc(CC(=O)NCc2cc(Cl)ccc2O)c1)NC[C@H](O)c1ccc(O)c(NS(C)(=O)=O)c1
[7]
  EC50: 0.17 nM
[1]
  Time: 6 h
[2]
  Ratio EC50: 7000
[8]
  logD: 1.6
[28]
  pKa: 9.22

## CC(C)(Cc1cccc(CC(=O)NCc2ccccc2)c1)NC[C@H](O)c1ccc(O)c(NS(C)(=O)=O)c1
[7]
  EC50: 0.023 nM
[2]
  Ratio EC50: 7500

## C[C@H](Cc1cccc(CC(=O)NCc2ccccc2)c1)NC[C@H](O)c1ccc(O)c(NS(C)(=O)=O)c1
[7]
  EC50: 0.027 nM
[1]
  Time: 3.24 h
[2]
  Ratio EC50: 16000
[8]
  logD: 1

## CC(C)(Cc1ccccc1)NCC(O)c1ccc(O)c(NS(C)(=O)=O)c1 (stereo not given) [ZINTEROL]
[1]
  Time: 3.4 h
[8]
  logD: 0.6

Source: ChEMBL document CHEMBL1240530, “Inhalation by design: novel ultra-long-acting β(2)-adrenoreceptor agonists for inhaled once-daily treatment of asthma and chronic obstructive pulmonary disease that utilize a sulfonamide agonist headgroup” (J Med Chem, 2010)
